Values quoted from earlier work, collected in patent publication US20050256196A1, “Decreasing brain neuronal glutamate levels using alpha-keto branched chain amino acids” (Odessa Pharma, priority 2004, published 2005).

Columns and labels:
[1] = in vivo
glutamine synthetase [2] = biological target: T1, glutamine synthetase (Rattus norvegicus, UniProt P09606); set-up: known convulsant doses of MSO (MW 179) to rats; host or cells: rats, in vivo (endogenous enzyme)
glutamine synthetase [3] = biological target: T1, glutamine synthetase
glutamine synthetase [4] = biological target: T1, glutamine synthetase; details: normal animals after MSO; reduced from 5.6
[5] = rats, known convulsant doses of MSO

T1 sequence (P09606 2-373 limits assumed): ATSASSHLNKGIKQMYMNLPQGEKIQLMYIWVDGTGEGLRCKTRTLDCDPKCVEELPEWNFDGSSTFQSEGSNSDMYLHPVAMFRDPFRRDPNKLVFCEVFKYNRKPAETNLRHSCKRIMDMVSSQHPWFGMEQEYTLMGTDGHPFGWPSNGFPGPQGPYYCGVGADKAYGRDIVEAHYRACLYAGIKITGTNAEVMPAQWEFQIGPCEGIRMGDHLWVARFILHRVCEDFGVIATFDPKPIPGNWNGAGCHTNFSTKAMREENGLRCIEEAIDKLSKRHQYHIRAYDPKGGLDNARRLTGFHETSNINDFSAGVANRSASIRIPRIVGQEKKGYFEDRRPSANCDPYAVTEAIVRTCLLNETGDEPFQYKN

CP(=O)(O)CCC(N)C(=O)O [Glufosinate, ammonium-D-L-homoalanine-4-yl(methyl)-phosphinate]
crossing of the blood-brain barrier [1]: does not cross the blood-brain barrier

CSCC[C@H](N)C(=O)O [L-methionine]
convulsant activity of MSO on simultaneous administration of L-methionine (glutamine synthetase [2]; [5]): prevents the convulsant activity
glutamine synthetase inhibitory activity of MSO on simultaneous administration of L-methionine (glutamine synthetase [2]; [5]): preserves the glutamine synthetase inhibitory activity

CS(=N)(=O)CC[C@H](N)C(=O)O (stereo partly drawn) [MSO, L-methionine S-sulfoximine]
reduction of nerve terminal glutamate levels (glutamine synthetase [3]): 52%
reduction of brain astrocyte levels of glutamine (glutamine synthetase [3]; normal animals): 66%
convulsant effect (glutamine synthetase [2]; depending on the dosage): can cause periodic convulsions
brain levels of glutamine (glutamine synthetase [4]): 1.8 mmol/kg brain
